From patent US20210387966A1, “2-AMINO-N-HETEROARYL-NICOTINAMIDES AS NAV1.8 INHIBITORS” (Merck Sharp & Dohme Corp., priority 2018, published 2021)

target: T1, human Nav1.8 channels (Homo sapiens, UniProt Q9Y5Y9); assay: Nav1.8 Qube automated patch-clamp assay; type: cell-based; conditions: human Nav1.8 stably expressed in HEK 293 cells; whole-cell voltage clamp, room temperature; resting or inactivated state not specified; read-out: IC50 values (nM) for Examples in the Nav1.8 Qube Assay
T1 construct: expressed in transfected cells
In short: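 Whole-cell patch clamp at room temperature on HEK293 cells stably expressing human Nav1.8. A 1 Hz train of ten 20 ms pulses to 10 mV from −90 mV holding, with −67 mV repolarization, was applied; first- and tenth-pulse peak currents gave resting and inactivated-state IC50s by Hill fitting.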

T1 sequence (Q9Y5Y9 whole entry): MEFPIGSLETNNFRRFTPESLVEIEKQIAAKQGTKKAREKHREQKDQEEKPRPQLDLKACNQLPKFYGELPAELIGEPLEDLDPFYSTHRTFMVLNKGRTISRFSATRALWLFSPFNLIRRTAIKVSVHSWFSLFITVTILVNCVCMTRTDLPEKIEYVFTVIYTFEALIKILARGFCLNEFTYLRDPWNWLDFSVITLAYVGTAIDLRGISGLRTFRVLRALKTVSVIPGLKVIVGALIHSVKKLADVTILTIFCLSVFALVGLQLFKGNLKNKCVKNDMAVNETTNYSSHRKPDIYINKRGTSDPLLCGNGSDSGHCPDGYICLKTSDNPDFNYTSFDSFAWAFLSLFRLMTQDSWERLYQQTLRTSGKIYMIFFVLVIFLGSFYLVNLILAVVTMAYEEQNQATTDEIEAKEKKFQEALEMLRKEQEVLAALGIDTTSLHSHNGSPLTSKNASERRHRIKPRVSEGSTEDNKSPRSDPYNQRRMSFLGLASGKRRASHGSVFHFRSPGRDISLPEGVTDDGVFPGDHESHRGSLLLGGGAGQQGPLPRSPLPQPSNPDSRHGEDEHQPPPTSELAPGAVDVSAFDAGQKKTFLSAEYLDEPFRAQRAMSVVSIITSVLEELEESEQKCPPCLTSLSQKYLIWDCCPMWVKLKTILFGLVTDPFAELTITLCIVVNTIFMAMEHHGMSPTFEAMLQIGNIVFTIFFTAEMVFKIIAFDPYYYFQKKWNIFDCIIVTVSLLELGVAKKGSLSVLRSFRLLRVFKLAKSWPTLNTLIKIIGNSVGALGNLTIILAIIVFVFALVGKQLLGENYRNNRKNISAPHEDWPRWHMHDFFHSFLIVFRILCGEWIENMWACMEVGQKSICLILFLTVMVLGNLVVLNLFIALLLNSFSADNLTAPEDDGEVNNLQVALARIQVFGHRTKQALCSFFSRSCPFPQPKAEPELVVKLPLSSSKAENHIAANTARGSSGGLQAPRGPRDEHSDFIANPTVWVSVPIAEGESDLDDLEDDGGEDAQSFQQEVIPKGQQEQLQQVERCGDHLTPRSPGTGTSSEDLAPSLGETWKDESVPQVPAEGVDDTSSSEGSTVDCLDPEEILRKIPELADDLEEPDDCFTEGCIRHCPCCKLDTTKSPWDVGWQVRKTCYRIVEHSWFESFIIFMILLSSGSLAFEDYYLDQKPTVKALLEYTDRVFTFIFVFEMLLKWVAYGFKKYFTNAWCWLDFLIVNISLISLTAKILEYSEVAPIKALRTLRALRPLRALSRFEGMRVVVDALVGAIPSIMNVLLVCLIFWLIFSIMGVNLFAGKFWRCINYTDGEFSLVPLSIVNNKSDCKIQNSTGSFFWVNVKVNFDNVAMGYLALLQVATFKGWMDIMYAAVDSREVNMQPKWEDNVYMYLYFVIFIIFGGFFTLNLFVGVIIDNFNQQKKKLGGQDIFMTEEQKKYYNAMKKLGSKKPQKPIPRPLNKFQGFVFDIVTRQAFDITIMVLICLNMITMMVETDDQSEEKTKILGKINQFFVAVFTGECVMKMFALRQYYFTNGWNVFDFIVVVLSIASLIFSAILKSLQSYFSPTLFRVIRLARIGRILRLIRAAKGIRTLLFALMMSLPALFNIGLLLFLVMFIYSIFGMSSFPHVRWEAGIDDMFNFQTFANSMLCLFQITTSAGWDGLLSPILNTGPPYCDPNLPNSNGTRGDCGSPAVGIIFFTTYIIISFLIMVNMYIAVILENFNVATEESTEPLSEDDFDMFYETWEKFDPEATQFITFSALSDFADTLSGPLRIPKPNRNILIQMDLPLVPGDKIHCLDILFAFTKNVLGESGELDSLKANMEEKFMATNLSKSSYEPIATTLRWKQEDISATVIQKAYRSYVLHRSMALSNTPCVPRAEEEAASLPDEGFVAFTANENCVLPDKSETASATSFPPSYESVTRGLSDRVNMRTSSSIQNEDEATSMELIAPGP

Compared with `NS(=O)(=O)c1cc(NC(=O)c2cc(C(F)(F)F)cnc2N2CCCC(Cc3ccc(C(F)(F)F)cc3)C2)ccn1` (centres unmarked) [Example 83, N-(2-sulfamoyl-4-pyridyl)-5-(trifluoromethyl)-2-[3-[[4-(trifluoromethyl)phenyl]methyl]-1-piperidyl]pyridine-3-carboxamide], `NS(=O)(=O)c1cc(NC(=O)c2cc(C(F)(F)F)cnc2N2CCC(Oc3cccc(C(F)(F)F)c3)CC2)ccn1` [Example 98, N-(2-sulfamoyl-4-pyridyl)-5-(trifluoromethyl)-2-[4-[3-(trifluoromethyl)phenoxy]-1-piperidyl]pyridine-3-carboxamide] is 21-fold higher in IC50: 114 nM for the first, 2370 nM for the second. The first is the more potent here.

First: COc1nc(N2CCCC(F)(F)CC2)c(C(=O)Nc2ccnc(S(N)(=O)=O)c2)cc1Cl [Example 41, 5-chloro-2-(4,4-difluoroazepan-1-yl)-6-methoxy-N-(2-sulfamoylpyridin-4-yl)pyridine-3-carboxamide]
Second: COc1nc(N2CCCC(F)(F)CC2)c(C(=O)Nc2ccnc(S(=O)(=O)NC(C)(C)C)c2)cc1Cl [Example 42, N-[2-(tert-butylsulfamoyl)pyridin-4-yl]-5-chloro-2-(4,4-difluoroazepan-1-yl)-6-methoxypyridine-3-carboxamide]
The IC50 of the first is 67-fold lower: 5.1 nM for the first, 341 nM for the second. The first is the more potent here.

Compared with `COc1ccc(C(=O)Nc2ccnc(S(N)(=O)=O)c2)c(N2CCCC(F)(F)CC2)n1` [Example 142, 2-(4,4-difluoroazepan-1-yl)-6-methoxy-N-(2-sulfamoylpyridin-4-yl)nicotinamide], `NS(=O)(=O)c1cc(NC(=O)c2ccc(C3CCC3)nc2N2CCCC(F)(F)CC2)ccn1` [Example 24, 6-cyclobutyl-2-(4,4-difluoroazepan-1-yl)-N-(2-sulfamoylpyridin-4-yl)nicotinamide] is 14-fold lower in IC50: 29 nM for the first, 2.1 nM for the second. The second is the more potent here.

Going from `NS(=O)(=O)c1cc(NC(=O)c2cc(C(F)(F)F)cnc2N2CCC3OCCC32)ccn1` (centres unmarked) [Example 96, 2-(2,3,3,a,5,6,6a-hexahydrofuro[3,2-b]pyrrol-4-yl)-N-(2-sulfamoyl-4-pyridyl)-5-(trifluoromethyl)pyridine-3-carboxamide] to `NS(=O)(=O)c1cc(NC(=O)c2cc(C(F)(F)F)cnc2N2C[C@H]3CC[C@H]3C2)ccn1` [Example 68, 2-((1R,5S)-3-azabicyclo[3.2.0]heptan-3-yl)-N-(2-sulfamoylpyridin-4-yl)-5-(trifluoromethyl)nicotinamide], the IC50 falls from 1620 nM to 29 nM (56-fold).

Compared with `CC1CN(c2nc(C(F)(F)F)ccc2C(=O)Nc2ccnc(S(N)(=O)=O)c2)CCC1(F)F` (single isomer, unassigned) [Example 163, (S or R)-2-(4,4-difluoro-3-methylpiperidin-1-yl)-N-(2-sulfamoylpyridin-d-yl)-6-(trifluoromethyl)nicotinamide], `CC1CN(c2nc(C(F)(F)F)c(Cl)cc2C(=O)Nc2ccnc(S(N)(=O)=O)c2)CCC1(F)F` (single isomer, unassigned) [Example 165, (R or S)-5-chloro-2-(4,4-difluoro-3-methylpiperidin-1-yl)-N-(2-sulfamoylpyridin-4-yl)-6-(trifluoromethyl)nicotinamide] is 4.8-fold lower in IC50: 10 nM for the first, 2.1 nM for the second. The second is the more potent here.

Going from `Cc1nc(N2CCCCC2)c(C(=O)Nc2cc[nH]c(=O)c2)c(C)c1Cl` [Example 211, 5-chloro-4,6-dimethyl-N-(2-oxo-1,2-dihydropyridin-4-yl)-2-(piperidin-1-yl)-nicotinamide] to `O=C(Nc1cc[nH]c(=O)c1)c1cc(C(F)(F)F)cnc1N1CCCC(F)(F)CC1` [Example 210, 2-(4,4-difluoroazepan-1-yl)-N-(2-oxo-1,2-dihydropyridin-4-yl)-5-(trifluoromethyl)-nicotinamide], the IC50 falls from 357 nM to 86 nM (4.2-fold). The second is the more potent here.

`Cc1cc(Cl)nc(N2CCC(F)(F)CC2)c1C(=O)Nc1cncc(S(N)(=O)=O)c1` [Example 11, 6-chloro-2-(4,4-difluoropiperidin-1-yl)-4-methyl-N-(5-sulfamoylpyridin-3-yl)nicotinamide] and `NS(=O)(=O)c1cncc(NC(=O)c2cc(Cl)cnc2N2CCC(F)(F)CC2)c1` [Example 10, 5-chloro-2-(4,4-difluoro-1-piperidyl)-N-(5-sulfamoyl-3-pyridyl)pyridine-3-carboxamide] are within 1.5-fold of each other in IC50: 212 nM for the first, 174 nM for the second.

Going from `NS(=O)(=O)c1cc(NC(=O)c2cc(C(F)(F)F)cnc2N2CCCO[C@H](C(F)(F)F)C2)ccn1` [Example 104, (S)-N-(2-sulfamoylpyridin-4-yl)-5-(trifluoromethyl)-2-(2-(trifluoromethyl)-1,4-oxazepan-4-yl)nicotinamide] to `NS(=O)(=O)c1cc(NC(=O)c2cc(C(F)(F)F)cnc2N2CCCO[C@@H](C(F)(F)F)C2)ccn1` [Example 105, (R)-N-(2-sulfamoylpyridin-4-yl)-5-(trifluoromethyl)-2-(2-(trifluoromethyl)-1,4-oxazepan-4-yl)nicotinamide], the IC50 rises from 56 nM to 696 nM (12-fold). The first is the more potent here.

First: CC1CN(c2ncc(C(F)(F)F)cc2C(=O)Nc2ccnc(C(N)=O)c2)CCC1(F)F (single isomer, unassigned) [Example 158, N-(2-carbamoyl-4-pyridyl)-2-[(3S or 3R)-4,4-difluoro-3-methyl-1-piperidyl]-5-(trifluoromethyl)-pyridine-3-carboxamide]
Second: NC(=O)c1cc(NC(=O)c2cc(C(F)(F)F)cnc2N2CCCC(F)(F)CC2)ccn1 [Example 137, 4-(2-(4,4-difluoroazepan-1-yl)-5-(trifluoromethyl)nicotinamido)picolinamide]
The IC50 of the first is 1.6-fold higher: 41 nM for the first, 26 nM for the second.

Compared with `CS(=O)(=O)c1cc(NC(=O)c2cc(C(F)(F)F)cnc2N2CCCCCC2)ccn1` [Example 140, 2-(azepan-1-yl)-N-(2-methylsulfonyl-4-pyridyl)-5-(trifluoromethyl)-pyridine-3-carboxamide], `CS(=O)(=O)c1cc(NC(=O)c2cc(C(F)(F)F)cnc2N2C[C@H]3CC[C@H]3C2)ccn1` [Example 152, 2-[(1R,5S)-3-azabicyclo[3.2.0]heptan-3-yl]-N-(2-methylsulfonyl-4-pyridyl)-5-(trifluoro-methyl)pyridine-3-carboxamide] is 1.7-fold higher in IC50: 91 nM for the first, 155 nM for the second. The first is the more potent here.

Compared with `O=C(Nc1ccc2ncc(Br)n2c1)c1cc(C(F)(F)F)cnc1N1CCCCCC1` [Example 199, 2-(azepan-1-yl)-N-(3-bromoimidazo[1,2-a]pyridin-6-yl)-5-(trifluoromethyl)-pyridine-3-carboxamide], `CC1(C)CN(c2ncc(C(F)(F)F)cc2C(=O)Nc2ccnc(S(N)(=O)=O)c2)CCCO1` [Example 107, 2-(2,2-dimethyl-1,4-oxazepan-4-yl)-N-(2-sulfamoyl-4-pyridyl)-5-(trifluoromethyl)pyridine-3-carboxamide] is 36-fold lower in IC50: 5070 nM for the first, 139 nM for the second. The second is the more potent here.

First: NS(=O)(=O)c1cc(NC(=O)c2cc(C(F)(F)F)cnc2N2CCCC3(C2)CC3(F)F)ccn1 (single isomer, unassigned) [Example 66, (R of S)-2-(1,1-difluoro-5-azaspiro[2.5]octan-5-yl)-N-(2-sulfamoylpyridin-4-yl)-5-(trifluoromethyl)nicotinamide]
Second: CC1(O)CCCN(c2ncc(C(F)(F)F)cc2C(=O)Nc2ccnc(S(N)(=O)=O)c2)C1 (centres unmarked) [Example 112, 2-(3-hydroxy-3-methyl-1-piperidyl)-N-(2-sulfamoyl-4-pyridyl)-5-(trifluoromethyl)pyridine-3-carboxamide]
The IC50 of the first is 96-fold lower: 88 nM for the first, 8410 nM for the second. The first is the more potent here.

`NS(=O)(=O)c1cc(NC(=O)c2cc(C(F)(F)F)cnc2N2CCn3c(Cc4ccccc4)cnc3C2)ccn1` [Example 86, 2-(3-benzyl-6,8-dihydro-5H-imidazo[1,2-a]pyrazin-7-yl)-N-(2-sulfamoyl-4-pyridyl)-5-(trifluoromethyl)pyridine-3-carboxamide] and `CC1(C)CN(c2ncc(C(F)(F)F)cc2C(=O)Nc2ccnc(S(N)(=O)=O)c2)CCN1CC(F)(F)F` [Example 87, 2-[3,3-dimethyl-4-(2,2,2-trifluoroethyl)piperazin-1-yl]-N-(2-sulfamoyl-4-pyridyl)-5-(trifluoromethyl)pyridine-3-carboxamide] are within 1.5-fold of each other in IC50: 172 nM for the first, 223 nM for the second.

First: CC1CN(c2ncc(C(F)(F)F)cc2C(=O)Nc2ccnc(S(N)(=O)=O)c2)CCC(C(F)(F)F)O1 (single isomer, unassigned) [Example 123, 2-((2S,7S or 2R,7R)-2-methyl-7-(trifluoromethyl)-1,4-oxazepan-4-yl)-N-(2-sulfamoylpyridin-4-yl)-5-(trifluoromethyl)nicotinamide]
Second: NS(=O)(=O)c1cc(NC(=O)c2cc(C(F)(F)F)cnc2N2CC3CCC3(C(F)(F)F)C2)ccn1 (single isomer, unassigned) [Example 58, N-(2-sulfamoyl-4-pyridyl)-5-(trifluoromethyl)-2-[(1S,5S or 1R,5R)-1-(trifluoromethyl)-3-azabicyclo[3.2.0]heptan-3-yl]pyridin-3-carboxamide]
The IC50 of the first is 2.8-fold higher: 28 nM for the first, 10 nM for the second. The second is the more potent here.

Going from `CS(=O)(=O)c1cc(NC(=O)c2cc(C(F)(F)F)cnc2N2C[C@@H]3[C@H](C2)C(F)(F)C3(F)F)ccn1` [Example 151, N-(2-methylsulfonyl-4-pyridyl)-2-[(1R,5S)-6,6,7,7-tetrafluoro-3-azabicyclo[3.2.0]heptan-3-yl]-5-(trifluoro-methyl)pyridine-3-carboxamide] to `NS(=O)(=O)c1cc(NC(=O)c2cc(C(F)(F)F)cnc2N2CCC(F)(F)CCC2=O)ccn1` [Example 28, 2-(5,5-Difluoro-2-oxoazepan-1-yl)-N-(2-sulfamoylpyridin-4-yl)-5-(trifluoromethyl)nicotinamide], the IC50 rises from 89 nM to 1300 nM (15-fold).

Going from `Cc1nc(N2CCCC(F)(F)CC2)c(C(=O)Nc2cnn(S(=O)(=O)CCN)c2)cc1Cl` [Example 33, N-{1-[(2-aminoethyl)sulfonyl]-1H-pyrazol-4-yl}-5-chloro-2-(4,4-difluoroazepan-1-yl)-6-methylpyridine-3-carboxamide] to `NS(=O)(=O)c1cncc(NC(=O)c2cc(C(F)(F)F)cnc2N2CCC(F)(F)CC2)n1` [Example 1, 2-(4,4-difluoropiperidin-1-yl)-N-(6-sulfamoylpyrazin-2-yl)-5-(trifluoromethyl)nicotinamide], the IC50 rises from 35 nM to 406 nM (12-fold). The first is the more potent here.
